The record followed here is PubChem BioAssay (NCI).

Holding throughout (experiment): growth of human tumour cells (NCI), 48 h
The test system of assay [1] is IGROV1 ovarian.
Assay [2] concerns MCF7 breast.
Assay [3] has as its system K-562 leukemia.
The subject of assay [4] is NCI-H522 lung.
Assay [5] has as its system CAKI-1 renal.
The test system of assay [6] is HCT-15 colon.
Assay [7] concerns 786-0 renal.
For assay [8], the system named is SF-268 CNS.
Assay [9] relates to BT-549 breast.
Assay [10] concerns SF-539 CNS.
For assay [11], the system named is PC-3 prostate.
Assay [12] relates to MDA-MB-231 breast.
For assay [13], the system named is HCC-2998 colon.

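Cells were grown in 96-well plates and exposed to each compound for 48 hours at five concentrations; endpoints were interpolated linearly between bracketing concentrations, or set to the highest concentration if not reached. TGI denotes the concentration required for complete inhibition of growth.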

For the compound `C=CCOC(=O)CC[C@H](NC(=O)[C@@H](CCC(F)(F)F)Cc1ccc(O)cc1)C(=O)OCC=C`, the TGI was > 100 µM in assay [1]; 48.2 µM in assay [2]; > 100 µM in assay [3]; 52.7 µM in [4]; > 100 µM in assay [5]; > 100 µM in assay [6]. The TGI in [7], in assay [8], in [9] and in assay [10] was > 100 µM throughout.
With `CC(=O)Nc1ccc2c3c(cc(O)c2c1)N(C(=O)CCCC(=O)N1CC(CCl)c2c1cc(O)c1cc(NC(C)=O)ccc21)CC3CCl` (stereo not drawn), the TGI was > 100 µM in [1]; > 100 µM in assay [3]; 0.0212 µM in [4]; 0.421 µM in assay [11]; 0.183 µM in [5]; 11.5 µM in assay [6]. Further, the TGI in [7] is 0.195 µM; in assay [9] it was 0.306 µM; in [10], 0.0964 µM; in [12], < 0.01 µM.
Regarding `Cc1nc2sccn2c1C(=O)NN`, the TGI in assay [1], in assay [3], in assay [4], in assay [5], in assay [6] and in assay [7] was > 100 µM in each case. The TGI in assay [8], in assay [10] and in assay [13] was > 100 µM throughout.
For `CC1=NN(c2cccc(Cl)c2)C2(SCC(=O)N2c2nc3ccccc3s2)C1=CC=Cc1ccccc1` (stereo not drawn), the TGI in [1] was > 100 µM; in assay [2], > 100 µM; in assay [3] it was > 100 µM; in [4] it was 62.3 µM; in assay [11] it was > 100 µM; in assay [5], > 100 µM. Further, the TGI in assay [6] is > 100 µM; in [7] it was > 100 µM; in [8] it was 93.5 µM; in [10], > 100 µM; in assay [12], 72 µM; in assay [13] it was > 100 µM.
In the case of `OC12c3ccccc3C1CCCCC2N1CCCC1` (stereo not drawn), the TGI in [4], in assay [6], in assay [7] and in assay [8] was > 100 µM each time.
As to `CC(=O)OCCn1cnc2c(NCC=C(C)C)ncnc21`, the TGI in assay [1], in [2], in assay [3], in assay [4], in [11] and in assay [5] was > 100 µM throughout. Besides, the TGI in [7], in [8], in assay [10] and in assay [12] was > 100 µM each time.
For the compound `FC1(F)[Se]C2C3CCC(C3)C2C1(F)F` (stereo not drawn), the TGI in assay [1], in assay [2], in assay [4], in assay [11], in assay [5] and in assay [6] was > 100 µM in each case. Besides, the TGI in assay [7], in [8], in [10], in [12] and in [13] was > 100 µM throughout.
With `COc1ccc(CNc2cnc3cc(N)ccc3n2)cc1`, the TGI in assay [1], in [3], in assay [4], in assay [6], in [7] and in assay [8] was > 100 µM throughout. Moreover, the TGI in assay [10] and in assay [13] was > 100 µM in each case.
For the compound `O=C(O)c1ccccc1C(=O)NCC1S(=O)(=O)OCCOS1(=O)=O`, the TGI in [1], in [2], in assay [3], in assay [4], in [11] and in assay [5] was > 100 µM each time. For the same compound, the TGI in [6], in assay [7], in assay [8], in assay [10], in [12] and in assay [13] was > 100 µM throughout.
For `Cc1ccc2c(c1)C(=C(C#N)C#N)CCCS2(=O)=O`, the TGI in assay [1], in assay [3], in assay [11], in assay [5], in assay [6] and in assay [7] was > 100 µM in each case. For the same compound, the TGI in [8], in assay [9], in [10], in [12] and in assay [13] was > 100 µM in each case.
Take `c1csc(-c2nn3c(C45CC6CC(CC(C6)C4)C5)nnc3s2)c1`: the TGI in assay [1], in assay [3], in [4], in [11], in [5] and in [6] was > 100 µM throughout. Besides, the TGI in assay [7], in assay [8], in assay [10], in [12] and in assay [13] was > 100 µM in each case.
Consider `C=C(C)C12CC3CC(/C(=N/O)C(C1)/C3=N\O)[C@@]2(C)O` (stereo partly drawn), for which the TGI in [1], in assay [3], in assay [4], in assay [5], in assay [6] and in assay [7] was > 100 µM in each case. The TGI in [8], in assay [10] and in assay [13] was > 100 µM in each case.
Consider `OC1(C(Sc2cc(C(F)(F)F)cc(C(F)(F)F)c2)Sc2cc(C(F)(F)F)cc(C(F)(F)F)c2)C=CCCC1` (stereo not drawn), for which the TGI is 8.56 µM in assay [1]; 4.58 µM in assay [2]; 5.42 µM in [3]; 5.75 µM in assay [4]; 6.33 µM in assay [5]; 4.13 µM in [6]. Moreover, the TGI in assay [7] turned out to be 8.09 µM; in [8], 8.81 µM; in assay [9], 9.89 µM; in assay [13], 3.25 µM.
Consider `O=C1/C(=C\c2ccc(Cl)cc2)N=C(c2ccccc2)N1n1c(=O)cn[nH]c1=S`, for which the TGI in assay [1] was 66.1 µM; in [2], 35.4 µM; in assay [3] it was 54.9 µM; in [4], 37.2 µM; in [11], > 100 µM; in assay [5], > 100 µM. Also, the TGI is 69.5 µM in assay [6]; 39.7 µM in assay [7]; 92.3 µM in assay [9]; > 100 µM in assay [10]; > 100 µM in [13].
